# Laboratory results taken from ChEMBL document CHEMBL2034833, “Synthesis of chalcone-amidobenzothiazole conjugates as antimitotic and apoptotic inducing agents” (Bioorg Med Chem, 2012).
# Assays:
# A549 [1] = assay: Cell cycle arrest in human A549 cells assessed as cell accumulation at subG1 phase at 2 uM after 48 hrs by propidium iodide staining based flow cytometry (reference value: […]); format: functional
# A549 [2] = assay: Cell cycle arrest in human A549 cells assessed as cell accumulation at G0/G1 phase at 2 uM after 48 hrs by propidium iodide staining based flow cytometry (reference value: 70.15%); format: functional
# A549 [3] = assay: Cell cycle arrest in human A549 cells assessed as cell accumulation at G2/M phase at 2 uM after 48 hrs by propidium iodide staining based flow cytometry (reference value: 23.75%); format: functional
# [4] = Inhibition of tubulin polymerization at 3 uM after 1 hr by fluorescence assay
# A549 [5] = assay: Induction of apoptosis in human A549 cells assessed as necrotic cells at 2 uM after 48 hrs by annexin-V FITC/propidium iodide staining based FACS analysis; format: functional
# A549 [6] = assay: Induction of apoptosis in human A549 cells assessed as late apoptotic cells at 2 uM after 48 hrs by annexin-V FITC/propidium iodide staining based FACS analysis; format: functional
# A549 [7] = assay: Induction of apoptosis in human A549 cells assessed as viable cells at 2 uM after 48 hrs by annexin-V FITC/propidium iodide staining based FACS analysis; format: functional; conditions: A549, 48 h, read-out: Activity
# A549 [8] = assay: Induction of apoptosis in human A549 cells assessed as early apoptotic cells at 2 uM after 48 hrs by annexin-V FITC/propidium iodide staining based FACS analysis; format: functional
# A-375 = assay: Cytotoxicity against human A375 cells after 48 hrs by MTT assay; format: functional, cell-based; conditions: A-375, 48 h
# HT-29 = assay: Cytotoxicity against human HT-29 cells after 48 hrs by MTT assay; format: functional, cell-based; conditions: HT-29, 48 h
# ACHN = assay: Cytotoxicity against human ACHN cells after 48 hrs by MTT assay; format: functional, cell-based
# A549 [9] = assay: cells; conditions: Homo sapiens, A549, 48 h
# Description: Cytotoxicity against human A549 cells after 48 hrs by MTT assay
# MCF7 = assay: cells; conditions: Homo sapiens, MCF7, 48 h
# Description: Cytotoxicity against human MCF7 cells after 48 hrs by MTT assay
smiles,measurement,setting,value
COc1ccc(/C=C\c2cc(OC)c(OC)c(OC)c2)cc1O [COMBRETASTATIN A4],Activity,A549 [1],8.44%
same,Activity,A549 [2],13.98%
same,Activity,A549 [3],63.75%
same,inhibition,[4],69.7%
same,Activity,A549 [5],22%
same,Activity,A549 [6],23.3%
same,viability at 2 µM,A549 [7],54.4%
same,Activity,A549 [8],0.3%
same,IC50,A-375,210 nM
same,IC50,HT-29,930 nM
same,IC50,ACHN,170 nM
same,IC50,A549 [9],110 nM
same,IC50,MCF7,180 nM
